Data as given in patent US4727062A, “3-Halovinylglycine antibacterial agents” (Merck & Co., Inc., priority 1986, dated 1988).
In brackets after ≈: the same amount, converted by molar mass.

How the values were obtained:
E. coli = assay: Agar dilution assay, M.I.C.; type: cell-based
Experimental: (§1) Representative 3-halovinylglycines and amino acid conjugates were tested for antibacterial activity by an agar dilution assay [being an modification of the antagonist-free-medium assay described in: Antimicrobial Agents and Chemotherapy, May 1979, pp 677-683 and pp 684-695]. Compounds asayed include (L) and (D)-3-chlorovinylglycine (HCL salts), (L) norvalyl-(L), (D), and (DL)-3-chlorovinylglycine (CF3 COOH salts), and (L) norvalyl-(L), (D), and (DL)-3 fluorovinylglycine (CF3 COOH) salts.
(§2) The antibacterial activity of the representative structure I compounds versus eleven representative strains of pathogenic bacteria is shown in the following Table.
(§3) Agar Dilution Asay [minimum inhibitory concentration (M.I.C.)-mg/ml]

S. aureus = assay: Agar dilution assay, M.I.C.; type: cell-based; details: for minimum inhibitory concentration (M.I.C.): agar dilution, S. aureus
Experimental: as §1, §2, §3

Sal. typhimurium = assay: Agar dilution assay, M.I.C.; type: cell-based
Experimental: as §1, §2, §3

K. pneumoniae = assay: Agar dilution assay, M.I.C.; type: cell-based; details: for minimum inhibitory concentration (M.I.C.): agar dilution, K. pneumoniae
Experimental: as §1, §2, §3

Ps. aeruginosa = assay: Agar dilution assay, M.I.C.; type: cell-based
Experimental: as §1, §2, §3

Prot. vulgaris = assay: Agar dilution assay, M.I.C.; type: cell-based
Experimental: as §1, §2, §3

E. coli TEM 2^+ = assay: Agar dilution assay, M.I.C.; type: cell-based
Experimental: as §1, §2, §3

Ser. marcescens = assay: Agar dilution assay, M.I.C.; type: cell-based
Experimental: as §1, §2, §3

Strep. faecalis = assay: Agar dilution assay, M.I.C.; type: cell-based
Experimental: as §1, §2, §3

E. coli DC2 = assay: Agar dilution assay, M.I.C.; type: cell-based
Experimental: as §1, §2, §3

cystathionine synthetase = details: synthesis of cystathionine from serine; cited from earlier work
Ent. cloacae P99^- = assay: Agar dilution assay, M.I.C.; type: cell-based
Experimental: as §1, §2, §3

[1] = tested on: eleven representative strains of pathogenic bacteria; assay: Agar dilution assay, panel of eleven strains; type: cell-based; details: for number of test species against which activity is shown: M.I.C. equal to or less than 256 indicates antibacterial activity
Experimental: as §1, §2

C=C(Cl)C(NC(=O)[C@@H](N)CCC)C(=O)O (mixture of isomers) [(L)-NVA-(DL)-Cl-vinylgly, L-norvalyl-D,L-3-chlorovinylglycine]
minimum inhibitory concentration (M.I.C.) (E. coli): 128 mg/mL
minimum inhibitory concentration (M.I.C.) (S. aureus): ≤ 0.25 mg/mL
minimum inhibitory concentration (M.I.C.) (Sal. typhimurium): 256 mg/mL
minimum inhibitory concentration (M.I.C.) (K. pneumoniae): 32 mg/mL
minimum inhibitory concentration (M.I.C.) (Ps. aeruginosa): > 256 mg/mL
minimum inhibitory concentration (M.I.C.) (Prot. vulgaris): 256 mg/mL
minimum inhibitory concentration (M.I.C.) (E. coli TEM 2^+): > 256 mg/mL
minimum inhibitory concentration (M.I.C.) (Ser. marcescens): > 256 mg/mL
minimum inhibitory concentration (M.I.C.) (Strep. faecalis): 4 mg/mL
minimum inhibitory concentration (M.I.C.) (E. coli DC2): 4 mg/mL

C=C(Cl)C(N)C(=O)O (racemic) [racemic 3-chlorovinylglycine, 2-amino-3-chloro-3-butenoic acid]
inactivation of cystathionine synthetase (in words) (cystathionine synthetase): not being an inactivator

CCC[C@H](N)C(=O)N[C@H](C=CCl)C(=O)O [(L)-NVA-(D)-Cl-vinylgly, L-norvalyl-D-3-chlorovinylglycine]
minimum inhibitory concentration (M.I.C.) (E. coli): > 256 mg/mL
minimum inhibitory concentration (M.I.C.) (S. aureus): 16 mg/mL (≈ 68.2 mM)
minimum inhibitory concentration (M.I.C.) (K. pneumoniae): 64 mg/mL (≈ 273 mM)
minimum inhibitory concentration (M.I.C.) (Ps. aeruginosa): > 256 mg/mL
minimum inhibitory concentration (M.I.C.) (Prot. vulgaris): > 256 mg/mL
minimum inhibitory concentration (M.I.C.) (E. coli TEM 2^+): 256 mg/mL (≈ 1090 mM)
minimum inhibitory concentration (M.I.C.) (Strep. faecalis): 128 mg/mL (≈ 545 mM)
minimum inhibitory concentration (M.I.C.) (E. coli DC2): 32 mg/mL (≈ 136 mM)

C=C(F)[C@@H](NC(=O)[C@@H](N)CCC)C(=O)O.O=C(O)C(F)(F)F [(L)-NVA-(D)-F-vinylgly, (L,D)-Norvalyl-3-fluorovinylglycine trifluoroacetate]
minimum inhibitory concentration (M.I.C.) (E. coli): > 256 mg/mL
minimum inhibitory concentration (M.I.C.) (S. aureus): > 256 mg/mL
minimum inhibitory concentration (M.I.C.) (Sal. typhimurium): > 256 mg/mL
minimum inhibitory concentration (M.I.C.) (K. pneumoniae): > 256 mg/mL
minimum inhibitory concentration (M.I.C.) (Ps. aeruginosa): > 256 mg/mL
minimum inhibitory concentration (M.I.C.) (Prot. vulgaris): > 256 mg/mL
minimum inhibitory concentration (M.I.C.) (E. coli TEM 2^+): > 256 mg/mL
minimum inhibitory concentration (M.I.C.) (Ser. marcescens): > 256 mg/mL
minimum inhibitory concentration (M.I.C.) (Strep. faecalis): > 256 mg/mL
minimum inhibitory concentration (M.I.C.) (E. coli DC2): > 256 mg/mL

C=C(F)C(NC(=O)[C@@H](N)CCC)C(=O)O (stereo partly drawn) [(L)-NVA-(DL)-F-vinylgly, (L,DL)-Norvalyl-3-fluorovinylglycine trifluoracetate]
minimum inhibitory concentration (M.I.C.) (E. coli): 8 mg/mL (≈ 36.7 mM)
minimum inhibitory concentration (M.I.C.) (S. aureus): 1.0 mg/mL (≈ 4.58 mM)
minimum inhibitory concentration (M.I.C.) (Sal. typhimurium): 256 mg/mL (≈ 1170 mM)
minimum inhibitory concentration (M.I.C.) (K. pneumoniae): 128 mg/mL (≈ 587 mM)
minimum inhibitory concentration (M.I.C.) (Ps. aeruginosa): > 256 mg/mL
minimum inhibitory concentration (M.I.C.) (Prot. vulgaris): > 256 mg/mL
minimum inhibitory concentration (M.I.C.) (E. coli TEM 2^+): 128 mg/mL (≈ 587 mM)
minimum inhibitory concentration (M.I.C.) (Ser. marcescens): 256 mg/mL (≈ 1170 mM)
minimum inhibitory concentration (M.I.C.) (Ent. cloacae P99^-): 64 mg/mL (≈ 293 mM)
minimum inhibitory concentration (M.I.C.) (Strep. faecalis): > 256 mg/mL
minimum inhibitory concentration (M.I.C.) (E. coli DC2): 4 mg/mL (≈ 18.3 mM)

C=C(Cl)[C@H](NC(=O)[C@@H](N)CCC)C(=O)O.O=C(O)C(F)(F)F [(L)-NVA-(L)-Cl-vinylgly, (L,L)-Norvalyl 3-chlorovinylglycine trifluoroacetate]
minimum inhibitory concentration (M.I.C.) (E. coli): 32 mg/mL
minimum inhibitory concentration (M.I.C.) (S. aureus): 0.5 mg/mL
minimum inhibitory concentration (M.I.C.) (Sal. typhimurium): 64 mg/mL
minimum inhibitory concentration (M.I.C.) (K. pneumoniae): 2 mg/mL
minimum inhibitory concentration (M.I.C.) (Ps. aeruginosa): > 256 mg/mL
minimum inhibitory concentration (M.I.C.) (Prot. vulgaris): 256 mg/mL
minimum inhibitory concentration (M.I.C.) (E. coli TEM 2^+): 8 mg/mL
minimum inhibitory concentration (M.I.C.) (Ser. marcescens): > 256 mg/mL
minimum inhibitory concentration (M.I.C.) (Strep. faecalis): 4 mg/mL
minimum inhibitory concentration (M.I.C.) (E. coli DC2): 1 mg/mL
number of test species against which activity is shown [1]: 8 of 11

C=C(F)[C@H](NC(=O)[C@@H](N)CCC)C(=O)O.O=C(O)C(F)(F)F [(L)-NVA-(L)-F-vinylgly, (L,L)-Norvalyl-3-fluorovinylglycine trifluoroacetate]
minimum inhibitory concentration (M.I.C.) (E. coli): 4 mg/mL
minimum inhibitory concentration (M.I.C.) (S. aureus): > 256 mg/mL
minimum inhibitory concentration (M.I.C.) (Sal. typhimurium): 128 mg/mL
minimum inhibitory concentration (M.I.C.) (K. pneumoniae): 2 mg/mL
minimum inhibitory concentration (M.I.C.) (Ps. aeruginosa): > 256 mg/mL
minimum inhibitory concentration (M.I.C.) (Prot. vulgaris): 32 mg/mL
minimum inhibitory concentration (M.I.C.) (E. coli TEM 2^+): 16 mg/mL
minimum inhibitory concentration (M.I.C.) (Ser. marcescens): 64 mg/mL
minimum inhibitory concentration (M.I.C.) (Ent. cloacae P99^-): 32 mg/mL
minimum inhibitory concentration (M.I.C.) (Strep. faecalis): 64 mg/mL
minimum inhibitory concentration (M.I.C.) (E. coli DC2): 2 mg/mL
number of test species against which activity is shown [1]: 9 of 11
antibacterial activity compared with the (L,D) diastereomer ([1]; antibacterial agar dilution assay): more active

N[C@@H](C=CCl)C(=O)O [(L)Cl vinylgly, L-3-chlorovinylglycine]
minimum inhibitory concentration (M.I.C.) (E. coli): > 256 mg/mL
minimum inhibitory concentration (M.I.C.) (S. aureus): 128 mg/mL (≈ 944 mM)
antibacterial activity (in words) (S. aureus; vs S. aureus): exhibits antibacterial activity
minimum inhibitory concentration (M.I.C.) (Sal. typhimurium): > 256 mg/mL
minimum inhibitory concentration (M.I.C.) (K. pneumoniae): 256 mg/mL (≈ 1890 mM)
antibacterial activity (in words) (K. pneumoniae; vs K. pneumoniae): exhibits antibacterial activity
minimum inhibitory concentration (M.I.C.) (Ps. aeruginosa): > 256 mg/mL
minimum inhibitory concentration (M.I.C.) (Prot. vulgaris): > 256 mg/mL
minimum inhibitory concentration (M.I.C.) (E. coli TEM 2^+): > 256 mg/mL
minimum inhibitory concentration (M.I.C.) (Ser. marcescens): > 256 mg/mL
